Values quoted from earlier work as cited in patent US20110088590A1, “METHOD FOR TREATING WOOD” (priority 2005, published 2011).

Tested on: honey bees and other beneficial insects, fish, aquatic insects, crayfish, and shrimp
Settings: for many species

SMILES: CC1(C)C(C=C(Cl)Cl)C1C(=O)OCc1cccc(Oc2ccccc2)c1 (stereo not shown) [Permethrin]
- lethal concentration: less than one
